Data set [1] addresses P-glycoprotein (MDR1, ABCB1) (Homo sapiens, UniProt P08183). Put plainly: P-gp transport profiling (substrate). The format is in vitro ADME. Particulars: human, Caco-2 cell layers; estimated. The source says:
(§1) Passive Permeability through CaCo-2 Cell Layers and P-gp Transport Profiling: […]

Data set [2] has as its target T1, P-glycoprotein (a.k.a. MDR1, ABCB1) (Homo sapiens, UniProt P08183). Put plainly: P-gp transport profiling (substrate). The data set is classed as in vitro ADME. Particulars: in vitro.
Excerpt: as §1

The conditions of data set [3]: in vivo; cited from earlier work.
Data set [4] has as its target T1, P-glycoprotein (a.k.a. MDR1, ABCB1). Briefly: Inhibition of P-gp by BIBW 2992. The data set is classed as in vitro ADME. Particulars: mean of two independent experiments; read-out: estimated Ki as inhibitor of P-gp.
Excerpt: as §1

Data set [5] is described as follows: Phase I two-way crossover trial: effect of ritonavir on pharmacokinetics of BIBW 2992.
The subject of another data set is CaCo-2 cell layers. Put plainly: Passive permeability through CaCo-2 cell layers. The data set is classed as in vitro ADME.
Excerpt: as §1
(In general: Caco-2 cells form a polarised layer with tight junctions and transporters.)

Another data set has as its target T2, CYP3A4 (Homo sapiens, UniProt P08684).
T2 construct: host or cells: healthy volunteers (in vivo)
Put plainly: CYP3A4-catalysed metabolism of BIBW 2992 in vivo (previous studies).

In general, Km refers to the concentration of substrate that gives half-maximal velocity. The term pKi denotes the negative decadic logarithm of the Ki, by convention in mol/L.

pKi: −log10 of the molar value.

T2 sequence (P08684 whole entry): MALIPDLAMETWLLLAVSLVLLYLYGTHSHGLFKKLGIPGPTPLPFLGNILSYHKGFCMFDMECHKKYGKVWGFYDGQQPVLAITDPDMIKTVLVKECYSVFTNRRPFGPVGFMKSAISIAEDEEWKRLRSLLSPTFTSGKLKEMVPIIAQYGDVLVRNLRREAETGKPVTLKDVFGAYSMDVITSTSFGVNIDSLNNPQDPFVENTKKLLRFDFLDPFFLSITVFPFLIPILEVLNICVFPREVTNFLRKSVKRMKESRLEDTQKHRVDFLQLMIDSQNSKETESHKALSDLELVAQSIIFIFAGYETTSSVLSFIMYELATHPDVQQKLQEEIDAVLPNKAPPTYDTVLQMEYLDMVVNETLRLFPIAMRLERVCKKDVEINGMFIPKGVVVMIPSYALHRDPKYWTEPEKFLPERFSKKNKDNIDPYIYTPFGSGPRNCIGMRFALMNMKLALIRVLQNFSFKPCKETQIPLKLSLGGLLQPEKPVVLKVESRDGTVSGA
T1 sequence (P08183 whole entry): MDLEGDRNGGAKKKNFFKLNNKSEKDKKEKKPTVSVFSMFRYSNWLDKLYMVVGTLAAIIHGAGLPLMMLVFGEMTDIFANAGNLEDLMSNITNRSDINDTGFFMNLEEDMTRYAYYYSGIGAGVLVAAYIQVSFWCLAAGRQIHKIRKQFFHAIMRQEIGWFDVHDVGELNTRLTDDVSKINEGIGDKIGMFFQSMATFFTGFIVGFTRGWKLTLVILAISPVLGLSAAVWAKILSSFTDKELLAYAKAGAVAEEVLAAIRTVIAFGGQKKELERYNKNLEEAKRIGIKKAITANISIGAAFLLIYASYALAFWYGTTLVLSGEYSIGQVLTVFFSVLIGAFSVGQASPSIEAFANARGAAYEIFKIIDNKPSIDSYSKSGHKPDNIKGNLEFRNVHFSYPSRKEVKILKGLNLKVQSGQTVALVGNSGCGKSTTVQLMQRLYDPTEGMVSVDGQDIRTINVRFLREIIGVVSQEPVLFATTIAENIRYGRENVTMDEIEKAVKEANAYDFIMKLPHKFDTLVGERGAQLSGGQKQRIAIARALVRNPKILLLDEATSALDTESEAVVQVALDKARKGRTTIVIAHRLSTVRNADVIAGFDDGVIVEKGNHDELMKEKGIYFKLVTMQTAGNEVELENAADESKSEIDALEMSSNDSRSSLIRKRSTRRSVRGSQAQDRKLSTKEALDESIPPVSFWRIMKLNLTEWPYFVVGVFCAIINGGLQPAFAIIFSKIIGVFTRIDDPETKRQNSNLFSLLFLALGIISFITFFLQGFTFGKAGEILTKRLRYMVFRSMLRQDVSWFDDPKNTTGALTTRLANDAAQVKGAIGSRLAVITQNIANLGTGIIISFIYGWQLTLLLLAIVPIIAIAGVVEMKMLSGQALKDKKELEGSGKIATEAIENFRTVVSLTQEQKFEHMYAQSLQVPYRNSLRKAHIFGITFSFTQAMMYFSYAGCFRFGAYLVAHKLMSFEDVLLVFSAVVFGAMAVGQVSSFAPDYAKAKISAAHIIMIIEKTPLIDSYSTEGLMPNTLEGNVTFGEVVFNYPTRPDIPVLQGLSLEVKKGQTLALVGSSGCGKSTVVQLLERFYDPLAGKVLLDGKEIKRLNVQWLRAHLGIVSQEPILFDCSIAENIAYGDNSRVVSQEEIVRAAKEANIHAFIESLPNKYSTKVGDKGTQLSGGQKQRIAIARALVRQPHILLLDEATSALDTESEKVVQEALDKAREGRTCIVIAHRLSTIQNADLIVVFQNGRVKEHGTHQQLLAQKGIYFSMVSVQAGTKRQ
Sequence of P-glycoprotein (MDR1, ABCB1) (P08183 whole entry): as above

Regarding `CN(C)C/C=C/C(=O)Nc1cc2c(Nc3ccc(F)c(Cl)c3)ncnc2cc1O[C@H]1CCOC1.O=C(O)/C=C\C(=O)O.O=C(O)/C=C\C(=O)O` [BIBW 2992, 4-[(3-chloro-4-fluorophenyl)amino]-6-{[4-(N,N-dimethylamino)-1-oxo-2-buten-1-yl]amino}-7-((S)-tetrahydrofuran-3-yloxy)-quinazoline], the Km in data set [1] was 10 to 30 µM. Also, the P-gp substrate status entry in data set [2] is “substrate of P-gp”. In data set [3], the “dose dependence of exposure” value was “more than dose-proportional increase in exposure”. In addition, the pKi in data set [4] is 5.47. For the same compound, the “AUC0-∞ increase compared with BIBW 2992 given alone” value in data set [5] (BIBW 2992 20 mg oral with ritonavir 200 mg twice daily, healthy male volunteers, 90% CI 133.7%, 162.9%) is 47.6%. For the same compound, the “AUC0-tz increase compared with BIBW 2992 given alone” value in data set [5] (BIBW 2992 20 mg oral with ritonavir 200 mg twice daily, healthy male volunteers, 90% CI 134.5%, 165.1%) was determined as 49.0%. Moreover, in data set [5] (male, human, in vivo, oral, 20 mg), the Tmax is 4 h. In addition, in data set [5] (with ritonavir 200 mg bid vs alone), the “terminal half-life, effect of ritonavir cotreatment” value is “unchanged”. Moreover, the passive permeability entry in the data set on CaCo-2 cell layers was “high”. Besides, the “CYP3A4-dependent N-demethylation” value at CYP3A4 (healthy volunteers) is “too low to be quantitatively detected”. Besides, the “role of CYP3A4 enzyme-catalysed metabolic reactions for metabolism” value at CYP3A4 (in vivo) was “subordinate role”.
